Source: ChEMBL document CHEMBL1143809, “New bis-N9-(methylphenylmethyl)purine derivatives: synthesis and antitumor activity” (2007)

Assays:
Format in all cases: functional
IGROV-1 = assay: Growth inhibition of human IGROV1 cells after 48 hrs by SRB protein assay; settings: IGROV-1, 48 h
UACC-257 = assay: Growth inhibition of human UACC257 cells after 48 hrs by SRB protein assay; settings: UACC-257, 48 h
CAKI-1 = assay: Growth inhibition of human CAKI1 cells after 48 hrs by SRB protein assay; settings: CAKI-1, 48 h
OVCAR-3 = assay: Growth inhibition of human OVCAR-3 cells after 48 hrs by SRB protein assay; settings: OVCAR-3, 48 h
UACC-62 = assay: Growth inhibition of human UACC62 cells after 48 hrs by SRB protein assay; settings: UACC-62, 48 h
OVCAR-8 = assay: Growth inhibition of human OVCAR8 cells after 48 hrs by SRB protein assay; settings: OVCAR-8, 48 h
U-251 = assay: Growth inhibition of human U251 cells after 48 hrs by SRB protein assay; settings: U-251, 48 h
PC-3 = assay: Growth inhibition of human PC3 cells after 48 hrs by SRB protein assay; settings: PC-3, 48 h
MCF7 = assay: Anticancer activity against human MCF7 cells assessed as growth at 100 uM after 48 hrs by SRB protein assay relative to control; settings: MCF7, 48 h, read-out: Activity
MOLT-4 = assay: Growth inhibition of human MOLT4 cells after 48 hrs by SRB protein assay; settings: MOLT-4, 48 h
HCT-116 = assay: Growth inhibition of human HCT116 cells after 48 hrs by SRB protein assay; settings: HCT-116, 48 h
[1] = Growth inhibition of human NCL-H23 cells after 48 hrs by SRB protein assay; settings: NCL-H23, 48 h
RXF 393 = assay: Growth inhibition of human RXF393 cells after 48 hrs by SRB protein assay; settings: RXF 393, 48 h
SW-620 = assay: Growth inhibition of human SW620 cells after 48 hrs by SRB protein assay; settings: SW-620, 48 h
ACHN = assay: Growth inhibition of human ACHN cells after 48 hrs by SRB protein assay
TK-10 = assay: Growth inhibition of human TK10 cells after 48 hrs by SRB protein assay; settings: TK-10, 48 h
K562 = assay: Growth inhibition of human K562 cells after 48 hrs by SRB protein assay; settings: K562, 48 h
NCI/ADR-RES = assay: Growth inhibition of human NCI/ADR-RES cells after 48 hrs by SRB protein assay
EKVX = assay: Growth inhibition of human EKVX cells after 48 hrs by SRB protein assay
CCRF-CEM = assay: Growth inhibition of human CCRF-CEM cells after 48 hrs by SRB protein assay
SNB-75 = assay: Growth inhibition of human SNB75 cells after 48 hrs by SRB protein assay; settings: SNB-75, 48 h
SF-539 = assay: Growth inhibition of human SF539 cells after 48 hrs by SRB protein assay; settings: SF-539, 48 h
SK-MEL-5 = assay: Growth inhibition of human SK-MEL-5 cells after 48 hrs by SRB protein assay; settings: SK-MEL-5, 48 h
SF-268 [2] = assay: Growth inhibition of human SF268 cells after 48 hrs by SRB protein assay; settings: SF-268, 48 h
COLO 205 = assay: Growth inhibition of human COLO205 cells after 48 hrs by SRB protein assay; settings: COLO 205, 48 h
[3] = Growth inhibition of human LOX MIVI cells after 48 hrs by SRB protein assay
BT-549 = assay: Growth inhibition of human BT549 cells after 48 hrs by SRB protein assay; settings: BT-549, 48 h
SF-268 [4] = assay: Anticancer activity against human SF268 cells assessed as growth at 100 uM after 48 hrs by SRB protein assay relative to control; settings: SF-268, 48 h, read-out: Activity
HOP-62 = assay: Growth inhibition of human HOP62 cells after 48 hrs by SRB protein assay; settings: HOP-62, 48 h
NCI-H460 = assay: Growth inhibition of human NCL-H460 cells after 48 hrs by SRB protein assay; settings: NCI-H460, 48 h
SK-MEL-28 = assay: Growth inhibition of human SK-MEL-28 cells after 48 hrs by SRB protein assay; settings: SK-MEL-28, 48 h
HOP-92 = assay: Growth inhibition of human HOP92 cells after 48 hrs by SRB protein assay; settings: HOP-92, 48 h
OVCAR-4 = assay: Growth inhibition of human OVCAR4 cells after 48 hrs by SRB protein assay; settings: OVCAR-4, 48 h
[5] = read-out: LC50 (the source's name)

In the case of `Clc1nc(Cl)c2ncn(Cc3ccccc3Cn3cnc4c(Cl)nc(Cl)nc43)c2n1`, the GI50 (IGROV-1) is reported as 5.25 µM, the LC50 (50% lethal concentration) (IGROV-1) is reported as 57.5 µM and the TGI (IGROV-1) is reported as 17.8 µM. It also gave a GI50 (UACC-257) of 7.94 µM, a TGI (UACC-257) of 23.4 µM and a CC50 (UACC-257; [5]) of 61.7 µM. For the same molecule, the GI50 (CAKI-1) was 1.73 µM, the TGI (CAKI-1) was 3.09 µM and the CC50 (CAKI-1; [5]) was 5.62 µM. It also gave a GI50 (OVCAR-3) of 1.66 µM, an LC50 (OVCAR-3) of 5.5 µM and a TGI (OVCAR-3) of 3.02 µM. For the same molecule, the GI50 (UACC-62) was 1.74 µM, the LC50 (concentration killing 50% of cells) (UACC-62) was 6.61 µM and the TGI (UACC-62) was 3.39 µM. It also gave a GI50 (OVCAR-8) of 3.02 µM, an LC50 (OVCAR-8) of 49 µM and a TGI (OVCAR-8) of 8.13 µM. For the same molecule, the GI50 (U-251) was 1.78 µM, the TGI (U-251) was 3.55 µM and the CC50 (U-251; [5]) was 69.2 µM. The GI50 (PC-3) was 2.24 µM, the TGI (PC-3) was 6.76 µM and the CC50 (PC-3; [5]) was 38.9 µM. For the same molecule, the growth at 100 µM (MCF7) was 0%, the GI50 (MOLT-4) was 1.66 µM and the LC50 (MOLT-4) was 8.13 µM. For the same molecule, the TGI (MOLT-4) was 3.63 µM, the GI50 (HCT-116) was 3.31 µM and the TGI (HCT-116) was 13.8 µM. For the same molecule, the CC50 (HCT-116; [5]) was > 100 µM, the GI50 [1] was 15.5 µM and the LC50 [1] was 67.6 µM. The TGI [1] was 32.4 µM, the TGI (RXF 393) was 3.47 µM and the CC50 (RXF 393; [5]) was 7.08 µM. For the same molecule, the GI50 (SW-620) was 1.86 µM, the TGI (SW-620) was 3.98 µM and the CC50 (SW-620; [5]) was 8.32 µM. It also gave a GI50 (ACHN) of 1.77 µM, an LC50 (ACHN) of 5.75 µM and a TGI (ACHN) of 3.24 µM. For the same molecule, the GI50 (TK-10) was 2.69 µM, the LC50 (50% lethal concentration) (TK-10) was 28.8 µM and the TGI (TK-10) was 7.94 µM. It also gave a GI50 (K562) of 1.95 µM, a TGI (K562) of 4.47 µM and a CC50 (K562; [5]) of 15.5 µM. For the same molecule, the GI50 (NCI/ADR-RES) was 20.4 µM, the LC50 (NCI/ADR-RES) was 91.2 µM and the TGI (NCI/ADR-RES) was 43.6 µM. For the same molecule, the GI50 (EKVX) was 1.02 µM, the LC50 (EKVX) was 6.76 µM and the TGI (EKVX) was 2.63 µM. It also gave a GI50 (CCRF-CEM) of 1.41 µM, a TGI (CCRF-CEM) of 3.09 µM and a CC50 (CCRF-CEM; [5]) of 6.61 µM. The GI50 (SNB-75) was 5.13 µM, the TGI (SNB-75) was 21.9 µM and the CC50 (SNB-75; [5]) was 81.3 µM. For the same molecule, the LC50 (SF-539) was 0.49 µM, the TGI (SF-539) was 0.14 µM and the GI50 (SK-MEL-5) was 2.24 µM. The LC50 (SK-MEL-5) was 22.9 µM, the TGI (SK-MEL-5) was 6.17 µM and the GI50 (SF-268 [2]) was 6.76 µM. For the same molecule, the LC50 (SF-268 [2]) was 95.5 µM, the TGI (SF-268 [2]) was 26.9 µM and the GI50 (COLO 205) was 3.16 µM. For the same molecule, the LC50 (COLO 205) was > 100 µM, the TGI (COLO 205) was > 100 µM and the GI50 [3] was 1.15 µM. It also gave an LC50 [3] of 6.61 µM, a TGI [3] of 2.75 µM and a GI50 (BT-549) of 0.17 µM. For the same molecule, the TGI (BT-549) was 1.51 µM, the CC50 (BT-549; [5]) was 5.01 µM and the growth at 100 µM (SF-268 [4]) was 0%. It also gave a GI50 (HOP-62) of 21.9 µM, an LC50 (HOP-62) of 72.4 µM and a TGI (HOP-62) of 39.8 µM. For the same molecule, the GI50 (NCI-H460) was 3.98 µM, the TGI (NCI-H460) was 17.4 µM and the CC50 (NCI-H460; [5]) was 89.1 µM. The GI50 (SK-MEL-28) was 3.98 µM, the LC50 (SK-MEL-28) was > 100 µM and the TGI (SK-MEL-28) was 24.6 µM. It also gave a GI50 (HOP-92) of 1.91 µM, an LC50 (HOP-92) of 9.12 µM and a TGI (HOP-92) of 4.17 µM. It also gave a GI50 (OVCAR-4) of 2.09 µM, an LC50 (OVCAR-4) of 8.71 µM and a TGI (OVCAR-4) of 4.23 µM.
